Results as given in PMC8611036, “An integrated method for optimized identification of effective natural inhibitors against SARS-CoV-2 3CLpro” (Scientific Reports, 2021).
Like-named read-outs stand apart in the source and are kept apart here.

Assays:
[1] = biological target: T1, SARS-CoV-2 3CLpro (Severe acute respiratory syndrome coronavirus 2, UniProt P0DTD1); experiment: Literature-collected IC50 of SARS-CoV-2 3CLpro inhibitors (test set); type: biochemical; details: class from pIC50 of the literature IC50
[2] = biological target: T1, SARS-CoV-2 3CLpro; details: cited from earlier work; for IC50: unit not printed (pIC50 corresponds to µM)
[3] = test system: SARS-CoV 3CLpro; type: biochemical; details: activity class by pIC50 threshold 6
[4] = biological target: T1, SARS-CoV-2 3CLpro; experiment: SARS-CoV-2 3CLpro inhibition assay (fluorogenic substrate Dabcyl-[…]-Edans); type: biochemical
[5] = biological target: T1, SARS-CoV-2 3CLpro; experiment: Surface plasmon resonance analysis (Biacore T200); type: binding
[6] = test system: SARS-CoV 3CLpro; details: SARS-CoV 3CLpro inhibitors (training set), ref: per compound, cited from earlier work
[7] = from literature IC50, ref Jo, Seri et al. Journal of enzyme inhibition and medicinal chemistry vol. 35,1 (2020): 1539-1544
[8] = ref Jo, Seri et al. Journal of enzyme inhibition and medicinal chemistry vol. 35,1 (2020): 1539-1544
[9] = from literature IC50, ref Zhu, Wei et al. ACS pharmacology & translational science vol. 3,5 (2020): 1008-1016
[10] = ref Zhu, Wei et al. ACS pharmacology & translational science vol. 3,5 (2020): 1008-1016
[11] = SARS-CoV-2 3CLpro in vitro dose–response inhibition, read-out: IC50
[12] = SPR, 25 °C, 3CLpro-his captured on CM7 chip, read-out: KD

**Q.** For `COc1ccc(-c2cc(=O)c3c(O)c(OC)c(OC4OC(COC5OC(C)C(O)C(O)C5O)C(O)C(O)C4O)cc3o2)cc1` (stereo not drawn) [CMP84], which “Inact.(<6)/Act.(>=6)” value [1] is on record?
**A.** Inact. (Inact.(<6))

**Q.** And the pIC50 [2, 7]?
**A.** 4.287

**Q.** And the IC50 [2, 8]?
**A.** 51.6 µM

**Q.** Which “Inact.(<6)/Act.(>=6)” value [1] does the source give for `O=C1/C(=C\c2ccc(-c3ccccc3)o2)C(c2ccccc2)=NN1c1ccccc1` [CMP10] here?
**A.** Inact. (Inact.(<6))

**Q.** And the pIC50 [2, 9]?
**A.** 4.652

**Q.** And the pIC50 ([2]; test set (SARS-CoV-2 3CLpro inhibitors), collected from literature)?
**A.** 4.652

**Q.** And the IC50 [2, 10]?
**A.** 22.3 µM

**Q.** What about the “Inact.(<6)/Act.(>=6)” value [3] of the same compound?
**A.** Inact. (Inact.(<6))

**Q.** What does the source list for `O=c1cc(-c2ccc(O)cc2)oc2c([C@@H]3O[C@H](CO)[C@@H](O)[C@H](O)[C@H]3O)c(O)c([C@@H]3OC[C@H](O)[C@H](O)[C@H]3O)c(O)c12` [Isoschaftoside, isoschaftoside]?
**A.** IC50 [4]: 30.2 µM; Kd [5]: 11.4 µM

**Q.** For `COc1cc(-c2oc3cc(O)cc(O)c3c(=O)c2O[C@@H]2O[C@H](CO[C@@H]3O[C@@H](C)[C@H](O)[C@@H](O)[C@H]3O)[C@@H](O)[C@H](O)[C@H]2O)ccc1O` [Narcissoside, narcissoside], which IC50 [4, 11] is on record?
**A.** 38.1 µM

**Q.** And the Kd [5, 12]?
**A.** 10 µM

**Q.** Which results are given for `O=C(O)c1ccccc1-c1ccc(/C=C2\C(=O)N(c3ccccc3)N=C2c2ccccc2)o1` [CMP13, reference compound]?
**A.** Inact.(<6)/Act.(>=6) [1]: Inact. (Inact.(<6)); pIC50 [2, 9]: 5.4828; IC50 [2, 10]: 3.29 µM; Inact.(<6)/Act.(>=6) [3]: Inact. (Inact.(<6)); pIC50 ([6]; from literature IC50): 4.3851; IC50 ([6]; literature values): 41.2 µM

**Q.** With `O=c1cc(-c2ccc(O)cc2)oc2c([C@@H]3O[C@H](CO)[C@@H](O)[C@H](O)[C@H]3O)c(O)c([C@@H]3O[C@H](CO)[C@@H](O)[C@H](O)[C@H]3O)c(O)c12` [Vicenin-2, vicenin-2] as the compound, how does the IC50 [4] read?
**A.** 38.9 µM

**Q.** And the Kd [5]?
**A.** 8.58 µM

**Q.** Which Kd [5] does the source give for `C[C@@H](CC[C@]1(O)O[C@H]2C[C@H]3[C@@H]4CC[C@@H]5C[C@@H](O[C@@H]6O[C@H](CO)[C@H](O)[C@H](O)[C@H]6O[C@@H]6O[C@H](CO)[C@@H](O)[C@H](O)[C@H]6O)CC[C@]5(C)[C@H]4CC[C@]3(C)[C@H]2[C@@H]1C)CO[C@@H]1O[C@H](CO)[C@@H](O)[C@H](O)[C@H]1O` [MOL004515] here?
**A.** 7.2 µM

**Q.** Which Kd [5] does the source give for `C[C@@H]1O[C@@H](O[C@@H]2[C@@H](O)[C@H](OCCc3ccc(O)c(O)c3)O[C@H](CO)[C@H]2OC(=O)/C=C/c2ccc(O)c(O)c2)[C@H](O)[C@H](O)[C@H]1O` [MOL003333] here?
**A.** 0.409 µM

**Q.** Which results are given for `O=c1c(O)c(-c2ccc(O)cc2)oc2c(O)c(O)cc(O)c12` [CMP83]?
**A.** Inact.(<6)/Act.(>=6) [1]: Inact. (Inact.(<6)); pIC50 [2, 7]: 4.268; IC50 [2, 8]: 53.9 µM

**Q.** For `C[C@@H]1O[C@@H](O[C@H]2[C@H](O[C@H]3CC[C@@]4(C)[C@@H](CC[C@]5(C)[C@H]4CC=C4[C@H]6CC(C)(C)CC[C@]6(C(=O)O[C@@H]6O[C@H](CO[C@@H]7O[C@H](CO)[C@@H](O)[C@H](O)[C@H]7O)[C@@H](O)[C@H](O)[C@H]6O)CC[C@]45C)[C@]3(C)CO)OC[C@H](O)[C@@H]2O)[C@H](O)[C@H](O)[C@H]1O` [MOL003034], which Kd [5] is on record?
**A.** 10.9 µM

**Q.** Which results are given for `O=c1c(O[C@@H]2O[C@H](CO[C@@H]3O[C@H](CO)[C@@H](O)[C@H](O)[C@H]3O)[C@@H](O)[C@H](O)[C@H]2O)c(-c2ccc(O)cc2)oc2cc(O)cc(O)c12` [Kaempferol-3-O-gentiobioside, kaempferol-3-O-gentiobioside]?
**A.** IC50 [4, 11]: 35.9 µM; Kd [5, 12]: 2.69 µM

**Q.** With `O=c1c(O[C@@H]2O[C@H](CO)[C@H](O)[C@H](O)[C@H]2O)c(-c2ccc(O)c(O)c2)oc2cc(O)cc(O)c12` [MOL004368] as the compound, how does the Kd [5, 12] read?
**A.** 9.98 µM

**Q.** Which Kd [5, 12] does the source give for `COc1cc(-c2oc3cc(O)cc(O)c3c(=O)c2O[C@@H]2O[C@H](CO)[C@@H](O)[C@H](O)[C@H]2O)ccc1O` [MOL007260] here?
**A.** 9.45 µM
